Results published in patent US10765642B2, “Composition for preventing or treating muscle weakness-related diseases comprising sobrerol” (KOREA RESEARCH INSTITUTE OF BIOSCIENCE AND BIOTECHNOLOGY, priority 2015, dated 2020).

Key:
myogenin promoter = experiment: secreted MyoG luciferase assay system (myogenin promoter-secreted luciferase C2C12 myoblast line); format: cell-based; details: for luciferase activity increase as compared to the negative control: negative control (MeOH) set at 1
Source text: To evaluate the myoblast differentiation-promoting capability of sobrerol, a secreted MyoG luciferase assay system was used (FIG. 1). Specifically, the promoter portion of myogenin, which is a protein whose expression is increased upon myogenesis, was cloned into a secreted luciferase vector (pMetLuc2-Reporter Vector, Clontech), and then the vector was transfected into myoblasts C2C12 to prepare a myogenin promoter-secreted luciferase C2C12 myoblast line capable of stably expressing the luciferase enzyme The differentiation degree of the myoblasts into myotube cells can be quantitatively verified through the system in which the luciferase enzymes are secreted into the medium as the myogenin promoter is activated. To induce differentiation into muscle cells, DMEM (Dulbecco's Modified Eagle Medium, Invitrogen) medium supplemented with 2% horse serum was added to the C2C12 myoblasts. Herein, the expressed MEF2 and MyoD bind to the myogenin promoter, and then the luciferase enzymes are expressed and secreted out of the cell. Since the secreted luciferase enzymes are present in the medium, it can be measured to verify the degree of myogenesis. […] Specific experimental methods are as follows. On the first day, the C2C12 cells prepared in the Example 1-1 were inoculated into a 96-well plate containing DMEM medium supplemented with 10% bovine serum (FBS) at a concentration of 5×10^3 cells/well. In the morning of the second day, the medium of the well plate was replaced with DMEM medium (Growth medium, GM) supplemented with 10% bovine serum, which is the same component. In the afternoon, the medium (GM) was collected. Then, each well was treated with 100 μL of DMEM medium (differentiation medium 1, DM1) supplemented with 2% horse serum diluted with the sobrerol at each concentration. On the third day, the DM1 medium was collected, and the wells were treated with the same medium as in the second day (DM2). On the fourth day, the DM2 was collected. The media containing the luciferase secreted in the differentiation process of C2C12 cells were collected starting from the growth medium (GM) to the first day differentiation medium (DM1) and the second day differentiation medium (DM2) as described above, and 5 μL of coelenterazine as a substrate was added to 50 μL of the collected medium containing the luciferase enzyme, and the generated light was measured using a luminometer. The myogenesis-promoting capability of sobrerol at each concentration was measured through digitization by subtracting the measured values of DM0 from the measured values of DM1 and DM2. […] Ready-To-Glow™ Secreted Luciferase Reporter Systems (Clontech) was used as the luciferase assay kit, and the experiment was repeated three times.

[1] = system: female C57BL/6 mice at the age of 21 months; experiment: grip strength test in aged mice; format: in vivo; details: oral for 5 weeks; for fatigue (grip strength weakening) on repeated grip strength measurement: sobrerol 17.6 or 35.3 mg/kg, clenbuterol 2 mg/kg
Experimental: (§1) The grip strength was measured using a grip strength measuring device for mouse (BIOSEB) (FIG. 6). Specifically, the front limbs of the mice of the Example 3-1 were placed on a wire net attached to an instrument panel capable of monitoring the strength, and the strength to hold the wire net was measured while the tail was gripped and pulled downward. The test was repeated three times in succession.
(§2) Experiments were conducted to confirm whether sobrerol increases muscle strength in aged mice. Female C57BL/6 mice at the age of 21 months were adapted to the environment for 2 weeks and then orally administered with drugs for 5 weeks. Specifically, the negative control group was administered with water, the positive control group was administered with clenbuterol at a concentration of 2 mg/kg (mouse), and the sobrerol administration experimental group was orally administered with sobrerol at a concentration of 17.6 or 35.3 mg/kg (mouse). Then, locomotion tests (grip strength, treadmill) were conducted again to verify the effect.
The grip strength test is the same as the Example 3-2.

[2] = system: tibialis anterior (TA) muscle fibers; experiment: muscle fiber diameter (laminin immunofluorescence of tibialis anterior section) in aged mice; format: in vivo; details: aged mice fed with sobrerol
Experimental: In addition, after the exercise restriction in the Example 3-3, sections of the tibialis anterior (TA) were stained by immunofluorescence analysis using the antibodies against laminin, which is a protein existing at the periphery of muscle fibers, and the diameter of each muscle fiber was measured.
as §2
(§3) In addition, changes in the muscle size and the muscle weight of the aged mice by sobrerol were verified by the method of the Example 3-3.
(§4) In addition, as in the Example 3-3, the diameter of the muscle fiber of the tibialis anterior (TA) section was measured by immunofluorescence analysis using laminin antibodies.

myogenin = experiment: qRT-PCR of myogenic regulatory factor mRNA in C2C12 myoblasts: myogenin; format: cell-based; details: 0.1 μM sobrerol, 48 hours, growth medium
Experimental: (§5) Experiments were conducted to verify the effect of sobrerol on mRNA of myogenic regulatory factor. Specifically, the myoblasts (C2C12 myoblast cells) placed in the growth medium were treated with 0.1 μM sobrerol for 48 hours, and then subjected to qRT-PCR to measure the levels of MyoD, myogenin, and myosin heavy chain (MyHC).

[3] = system: tibialis anterior (TA) muscle fibers; experiment: muscle fiber diameter (laminin immunofluorescence of tibialis anterior sections) after exercise restriction; format: in vivo, mice; details: oral
Experimental: (§6) A total of 45 male C57BL/6 mice at 5 weeks of age (Daehan BioLink) were used in this animal experiment. After 2 weeks of adaptation to the surrounding environment, sobrerol was orally administered twice daily since 7 weeks of age. The control group was administered with 200 μL of water/20 g of mouse, and sobrerol was orally administered at a ratio of 1:2:4 [8.8 mg/200 μL/20 g (mouse), 17.6 mg/200 μL/20 g (mouse) and 35.3 mg/200 μL/20 g (mouse)] to verify dose dependency. At 8 weeks of age, both hind limbs of the mice were immobilized for 10 days using a surgical stapler (Autosuture Royal 35W stapler). (A novel hindlimb immobilization procedure for studying skeletal muscle atrophy and recovery in mouse. J Appl Physiol 106: 2049-2059, 2009). After removing the surgical stapler, they were allowed to move again for 3 days (remobilization), and then exercise capability improvement-verification tests (treadmill, and grip tests) were conducted. In addition, after the exercise restriction in the Example 3-3, sections of the tibialis anterior (TA) were stained by immunofluorescence analysis using the antibodies against laminin, which is a protein existing at the periphery of muscle fibers, and the diameter of each muscle fiber was measured.

aged mice = experiment: treadmill test in aged mice after exercise restriction; format: in vivo; details: hind limbs immobilized 5 days then remobilization
Experimental: as §2
Both hind limbs of the mice were immobilized for 5 days using a surgical stapler (Autosuture Royal 35W stapler), and after removing the surgical stapler, they were allowed to move again (remobilization), and then exercise capability was evaluated by a treadmill test. As a result, the running time on the treadmill decreased after the exercise restriction as compared to that before the exercise restriction in the control group administered with distilled water, whereas the running time was not affected by exercise restriction in the experiment group administered with sobrerol (FIG. 17).

male C57BL/6 mice [4] = experiment: muscle weight measurement after exercise restriction; format: in vivo; details: oral
Experimental: as §6, with “As a result,” for “In addition, after”, “diameters” for “exercise restriction in the Example 3-3, sections”, “muscle fibers of the mice orally administered with sobrerol” for “tibialis anterior (TA)”, “larger than those of” for “stained by immunofluorescence analysis using”, “control group orally administered with distilled water (FIG. 11).” for “antibodies against laminin, which is a protein existing at the periphery of muscle fibers, and the diameter of each muscle fiber was measured.”

[5] = system: female C57BL/6 mice at the age of 21 months; experiment: muscle weight in aged mice; format: in vivo; details: 35.3 mg/kg
Experimental: as §2, §3, §4

[6] = system: female C57BL/6 mice at the age of 21 months; experiment: treadmill test in aged mice; format: in vivo; details: 5 weeks
Experimental: One day prior to the treadmill test, the equipment was warmed up at a rate of 6 m/min for 10 minutes. At the starting point, electric stimulation was configured to flow so that the mice were forced to exercise. The next day, the test was started at a speed of 8 m/min and the speed was increased by 2 m/min every 20 minutes. One hour after the start of the treadmill test, the speed of 12 m/min was maintained, and the angle was increased by 5° and the electric stimulation was turned off. After 20 minutes, the angle of 5° was maintained but only the speed was increased by 2 m/min. Under the above condition, the running times of the mice were measured and recorded.
as §2
Tread mill test is the same as Example 3-3.

MyoD = experiment: qRT-PCR of myogenic regulatory factor mRNA in C2C12 myoblasts: MyoD; format: cell-based; details: 0.1 μM sobrerol, 48 hours, growth medium
Experimental: as §5

[7] = system: myosin heavy chain (MyHC); experiment: qRT-PCR of myogenic regulatory factor mRNA in C2C12 myoblasts: myosin heavy chain; format: cell-based; details: 0.1 μM sobrerol, 48 hours, growth medium
Experimental: as §5

male C57BL/6 mice [8] = experiment: treadmill test after hind limb immobilization and remobilization; format: in vivo; details: immobilized mice
Experimental: A total of 45 male C57BL/6 mice at 5 weeks of age (Daehan BioLink) were used in this animal experiment. After 2 weeks of adaptation to the surrounding environment, sobrerol was orally administered twice daily since 7 weeks of age. The control group was administered with 200 μL of water/20 g of mouse, and sobrerol was orally administered at a ratio of 1:2:4 [8.8 mg/200 μL/20 g (mouse), 17.6 mg/200 μL/20 g (mouse) and 35.3 mg/200 μL/20 g (mouse)] to verify dose dependency. At 8 weeks of age, both hind limbs of the mice were immobilized for 10 days using a surgical stapler (Autosuture Royal 35W stapler). (A novel hindlimb immobilization procedure for studying skeletal muscle atrophy and recovery in mouse. J Appl Physiol 106: 2049-2059, 2009). After removing the surgical stapler, they were allowed to move again for 3 days (remobilization), and then exercise capability improvement-verification tests (treadmill, and grip tests) were conducted. The equipment shown in FIG. 8 was used for the treadmill test. The treadmill test was conducted as shown in FIG. 9 with reference to the treadmill protocol of used for the treadmill test (DOI 10.1016/j.cell.2006.11.013_Cell, Volume 127 Supplemental Data). One day prior to the treadmill test, the equipment was warmed up at a rate of 6 m/min for 10 minutes. At the starting point, electric stimulation was configured to flow so that the mice were forced to exercise. The next day, the test was started at a speed of 8 m/min and the speed was increased by 2 m/min every 20 minutes. One hour after the start of the treadmill test, the speed of 12 m/min was maintained, and the angle was increased by 5° and the electric stimulation was turned off. After 20 minutes, the angle of 5° was maintained but only the speed was increased by 2 m/min. Under the above condition, the running times of the mice were measured and recorded.

male C57BL/6 mice [9] = experiment: grip strength test after hind limb immobilization and remobilization; format: in vivo
Experimental: as §6, with “conducted.” for “conducted. In addition, after the exercise restriction in the Example 3-3, sections of the tibialis anterior (TA) were stained by immunofluorescence analysis using the antibodies against laminin, which is a protein existing at the periphery of muscle fibers, and the diameter of each muscle fiber was measured.”
as §1

[10] = system: myosin heavy chain protein; experiment: immunofluorescence of myosin heavy chain protein in C2C12 myoblasts; format: cell-based; details: 0.1 μM sobrerol, 72 hours, differentiation medium
Experimental: Among the myogenic regulatory factors whose mRNA increased in the Example 2-1, experiments were conducted to verify the effect of sobrerol on the expression of myosin heavy chain. Specifically, the expression level of the myosin heavy chain protein was measured by immunofluorescence after treating the C2C12 myoblasts placed in the differentiation medium with 0.1 μM of sobrerol for 72 hours.

CC1=CCC(C(C)(C)O)CC1O (centres unmarked) [sobrerol]
luciferase activity increase as compared to the negative control (myogenin promoter; 0.01 nM sobrerol, C2C12): ≥ 1.2 fold
luciferase activity versus control group (myogenin promoter; 0.01 nM to 10 μM sobrerol, C2C12): higher luciferase activity than the control group
luciferase activity increase as compared to the negative control (myogenin promoter; 0.1 nM sobrerol, C2C12): about 1.5 fold
concentration with the greatest differentiation-promoting capability (myogenin promoter; C2C12 myogenin promoter luciferase): 0.1 nM
first measured grip strength values, difference between groups [1]: no differences
fatigue (grip strength weakening) on repeated grip strength measurement [1]: did not show the increase in fatigue
diameters of the muscle fibers (tibialis anterior section) [2]: further increased
myogenin mRNA increase (myogenin): 4 fold
diameters of the muscle fibers (tibialis anterior) versus distilled water control [3]: larger
treadmill running time after exercise restriction versus before (aged mice): not affected
weight of extensor digitorum longus (EDL) (male C57BL/6 mice [4]): significantly increased
weight of gastrocnemius (GA) (male C57BL/6 mice [4]): significantly increased
weight of soleus (male C57BL/6 mice [4]): significantly increased
weight of tibialis anterior (TA) (male C57BL/6 mice [4]): significantly increased
weights of the gastrocnemius (GA) [5]: increased to a significant level
treadmill running time versus negative control group ([6]; 17.6 mg/kg oral): significantly longer
treadmill running time versus negative control group ([6]; 35.3 mg/kg oral): longer running time than the negative control group
MyoD mRNA increase (MyoD): 2 fold
myosin heavy chain mRNA increase [7]: ≥ 25 fold
treadmill running time versus group administered with distilled water (male C57BL/6 mice [8]; 8.8 mg/kg oral, still shorter than non-immobilization group): slightly longer
treadmill running time versus non-immobilization group (male C57BL/6 mice [8]; 17.6 mg/kg oral): almost similar to the non-immobilization group
treadmill running time versus non-immobilization group (male C57BL/6 mice [8]; 35.3 mg/kg oral): longer as compared to the non-immobilization group
grip strength with higher concentration of sobrerol administered (male C57BL/6 mice [9]; oral 8.8, 17.6, 35.3 mg/kg, immobilized mice): increasing tendency
grip strength measurement value (male C57BL/6 mice [9]; oral, twice daily, hind limbs immobilized 10 days, remobilization 3 days, negative control 3.5 N or less): ≥ 4.0 N
myosin heavy chain protein fluorescence intensity versus DMSO group [10]: stronger

CC(C)(C)NCC(O)c1cc(Cl)c(N)c(Cl)c1 (centres unmarked) [clenbuterol]
fatigue (grip strength weakening) on repeated grip strength measurement [1]: did not show the increase in fatigue
